Laboratory results from patent publication US6867186B2, “Cell-permeable protein inhibitors of calpain” (New England Medical Center Hospital, priority 1997, dated 2005).
Read-outs that look alike come from different tables or passages of the source.

Legend:
[1] = tested on: gel filtered platelets; test: Thrombin-induced platelet aggregation (aggregometer); type: cell-based, human; settings: for effect on platelet aggregation: thrombin or SFLLR induced
Description: In one series of experiments, platelets were purified from […] on a SEPHAROSE 2B column in PIPES buffered saline containing glucose, pre-incubated with 45 μM calpastat or S-TIPPEY-ala for 30 minutes at 37° C., and placed in a cuvette in a BIODATA aggregometer. The aggregometer measures turbidity of the solution by nephlometry (light scatter). Aggregation was induced with thrombin (0.1 to 1 unit/ml) or the thrombin receptor agonist peptide SFLLR (SEQ ID NO:5). […] In contrast, S-TIPPEY-ala had no activity. A version of S-TIPPEYIN lacking the signal sequence similarly had no activity.
In another series of experiments, gel filtered platelets were obtained and tested as follows. Blood from healthy, aspirin-free volunteers was collected by venipuncture into 4% sodium citrate (9:1 v/v, final concentration 0.4%) and centrifuged at 200×g for 20 minutes to obtain platelet rich plasma (PRP). Following incubation with apyrase (4 units/ml for 5 minutes at room temperature), platelets were purified from PRP by gel-filtration at room temperature using a Sepharose 2B column equilibrated in PIPES buffer (25 mM PIPES pH 6.8, 140 mM NaCl, 4 mM KCl, and 0.1% glucose) (Hsu-Lin, et al., J. Biol. Chem. 259:9121-9126, 1984). Final gel filtered platelet concentrations were about 1.5×10^8 cells/ml.
Gel filtered platelets (250 μl aliquots at 1.6×10^8/ml) were incubated with the indicated concentration of calpastat or mutant calpastat-ala for either 20 or 30 minutes at 37° C. in the absence of calcium and stirring. To test peptidyl calpain inhibitors, platelets were preincubated with the indicated concentration of calpeptin, MDL, E64d, DMSO (vehicle control) or NH4Cl (cathepsin control) for 10 minutes at 37° C. Following incubation, platelets were recalcified (CaCl2, 2 mM) and stimulated with 0.05-1.0 unit/ml thrombin, while being stirred (1400 rpm) at 37° C. The sensitivity of platelet preparations to thrombin decreased over the course of a given experiment. The thrombin concentration used was to elicit robust aggregation and varied between 0.05 and 1.0 U/ml. Aggregation was measured using a Bio-Data lumi-aggregometer. Percent inhibition of aggregation was measured at 4 minutes following the onset of aggregation. The initial rate of aggregation during the first 15 seconds for treated vs. untreated samples was used to calculate the IC50 for each inhibitor.

[2] = tested on: calpain; test: Ionophore-dependent calpain degradation of ABP and talin in platelets; type: cell-based; settings: 5, 8, or 10 minutes A23187
Description: To investigate whether calpastat inhibits calpain activity in platelets, the ionophore-dependent proteolysis of actin binding protein (ABP; about 280 kDa) and talin (about 240 kDa), both of which are substrates of both μ- and m-calpains, was examined as follows.
Platelets were pre-incubated with ZLLYCHN2, DMSO (solvent for ZLLY-CHN2), calpastat, or HEPES buffer (buffer for calpastat), and then treated with or without ionophore A23187 for 5, 8, or 10 minutes. The platelets were then gel-purified as described above. Whole cell lysates were prepared and fractionated by SDS polyacrylamide gel electrophoresis.

[3] = tested on: red blood cells isolated from sickle cell patients; test: Na2S2O5-induced sickling of sickle erythrocytes; type: cell-based, human
Description: To examine sickling, a wet preparation of red blood cells (as opposed to a dried smear) was made by placing blood under a coverslip on a glass slide. The slide was placed under a light microscope, and the number of cells displaying sickled morphology was counted. Na2S2O5 was used to increase the rate of sickling.
When EDTA-anticoagulated peripheral blood from a sickle cell patient was preincubated with calpastat for 10 minutes prior to exposure to sodium metabisulfite (Na2S2O5), there was a significant delay (about 30 minutes) in sickling.
In a second experiment, the effect of calpastat on recovery from sickling was measured. Blood from the same patient was incubated with Na2S2O5, for two hours in a microfuge tube. The supernatant plasma was then removed from the settled erythrocytes and the erythrocytes were diluted in four volumes of saline. The washed erythrocytes were then incubated in saline, and Wright-Giemsa stained smears were made 60 minutes following the washout of Na2S2O5.

[4] = tested on: U1 cells; test: U1 cell viability (Trypan-blue exclusion); type: cell-based, human; settings: 5 μM calpastat, 96 hr; from 40% without
Description: U1 is a human promonocytic cell line that is chronically infected with HIV-1 and that constitutively expresses low levels of HIV-1. […] In the present experiment, 1×10^6 cells/ml were treated with various dosages of calpastat and incubated for one hour at 37° C. After incubation, various concentrations of Tpg were added to the calpastat-treated cells and aliquoted into a 24-well plate. To observe the stimulation of HIV-1 activity by Tpg, equivalent numbers of cells were treated with Tpg alone. The cells were then incubated at 37° C. for up to four days, and supernatants from the cell culture were collected each day to measure HIV-1 activity. The viability of cells treated with both Tpg and calpastat were determined each day by Trypan-blue exclusion test. The HIV-1 activity in the collected supernatants was determined by measuring the HIV-1 p24 core antigen protein by ELISA (Dupont Medical Products, Boston, Mass.) according to the manufacturer's instructions.
In another series of experiments, U1 cells, which are latently infected with HIV-1 provirus, were plated at 10^6 cells/well in 1 ml of medium and treated with varying concentrations of either calpastat (FIG. 7E) or calpeptin (benzyloxycarbonyl-leucyl-norleucinal) (FIG. 7F) for 45 minutes before addition of thapsigargin (4 nM final concentration). The viability of U1 monocytes was 90% at 48 hours of thapsigargin (4 nM) treatment, in the presence or absence of calpain inhibitors. After 48 hours of stimulation, HIV-1 p24 antigen levels were determined in 200 μl of tissue culture supernatant, using a p24 ELISA (DuPont). All assays were performed on triplicate cultures. Mean values and standard deviations are shown for each concentration of inhibitor (FIGS. 7E-7F).

[5] = sixty minutes following Na2S2O5 washout

Row | Substance | IC50 ([1]; initial rate during first 15 seconds, NI=no inhibition, peptidyl inhibitors 10 min pre-incubation, read-out: IC50, initial rate of thrombin-induced platelet aggregation) | effect on platelet aggregation [1] | effect on platelet aggregation ([1]; listed as S-TIPPEY-ala) | A23187-dependent calpain degradation of ABP and talin in platelets [2] | final percentage of sickled cells ([3]; Na2S2O5) | delay in sickling ([3]; preincubated 10 minutes prior to Na2S2O5) | percentage of discocytes compared to S-TIPPEY-ala-treated cells [3, 5] | percentage of sickled cells compared to S-TIPPEY-ala-treated cells [3, 5] | concentration of maximal inhibition of platelet aggregation ([1]; 30 minutes pre-incubation at 37° C.) | IC50 ([1]; no unit printed, read-out: IC50 of calpastat, initial rate of thrombin-induced aggregation) | viability of U1 cells in 4 nM Tpg [4]
1 | AAVALLPAVLLALLAPEKLAERADAAAPEAAELLEKKTGV [Calpastat-ala] | > 50 µM | no measurable effect | no activity |  |  |  |  |  |  |  | 
2 | H-AAVALLPAVLLALLAPEKLGERDDTIPPEYRELLEKKTGV-OH [Calpastat] |  | inhibited platelet aggregation and secretion |  | inhibited | no detectable difference | about 30 minutes | two-fold greater | two-fold lower | 45 µM | 50 µM | 90%
